Results taken from patent US20210238698A1, “METHODS OF DIAGNOSING AND TREATING CANCER PATIENTS EXPRESSING HIGH LEVELS OF TGF-B RESPONSE SIGNATURE” (MEDPACTO, INC., priority 2018, published 2021).

Test system: patients with advanced solid tumors
Experiment: Phase I trial of single administration of Vactosertib, tumor assessment (anti-tumor activity)
Assay type: in vivo, human
From the text: A ‘responder’ refers to a Patient whose best overall response on treatment was stable disease (SD) or greater, and a ‘non-responder’ refers to a patient whose best overall response on treatment was progression on disease (PD) or worse. The unit for all data of gene expression is TPM (Transcripts Per Kilobase Million). The CD8A gene is implicated in playing an important role in the immune response. The cytolytic score is used to assess anticancer immunity. […]
In particular, the F-TBRS and the cytolytic score in cancer of responders and non-responders at the Phase I trial of single administration of Vactosertib (the compound represented by Formula II; TEW-7197) were analyzed and the results were shown in FIG. 3.
In addition, the EMT/F-TBRS expression distribution from the TCGA database of bladder cancer was analyzed and the results are shown in FIG. 4. […]

SMILES: Cc1cccc(-c2[nH]c(CNc3ccccc3F)nc2-c2ccc3ncnn3c2)n1 [Vactosertib, N-((4-([1,2,4]triazolo[1,5-a]pyridin-6-yl)-5-(6-methylpyridin-2-yl)-1H-imidazol-2-yl)methyl)-2-fluoroaniline]
- patients who achieved SD (stable disease, responder) (Phase I, higher doses (≥140 mg, qd)): seven
- tumor shrinkage (one patient with bladder cancer at the Phase I trial, high EMT/F-TBRS expression): −25%
